Measured values taken from patent US9670227B2, “Thienopyrimidine derivatives, a process for their preparation and pharmaceutical compositions containing them” (LES LABORATOIRES SERVIER, priority 2013, dated 2017).
Like-named read-outs stand apart in the source and are kept apart here. Values belong to the compound of their own block, whether it stands above or below them.

Target: Mcl-1 protein (UniProtKB primary accession number: Q07820) (Homo sapiens, UniProt Q07820)
Assay: Inhibition of Mcl-1 by fluorescence polarisation, Method 1
Format: binding
Settings: for IC50: read-out: IC50 (M) Mcl-1 FP; for percentage fluorescence polarisation inhibition, Mcl-1 FP: partial inhibitors, @ 1 uM test compound; for percentage fluorescence polarisation inhibition (Mcl-1 FP), partial inhibitors: test compound at 10 uM
In short: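 Compounds were tested as 11-point serial dilutions at 5% final DMSO against 5 nM Mcl-1 with 1 nM fluorescein-labelled ligand in 10 mM HEPES, 150 mM NaCl, 0.05% Tween 20, pH 7.4. Relative binding potency was read by fluorescence polarisation.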

[1] = fluorescence polarisation test, Method 2 values are underlined in the patent (underlining not visible here)
[2] = fluorescence polarisation, Method 1, or Method 2
[3] = fluorescence polarisation test, Method 1, or Method 2 where the value is underlined (underlining not visible)
[4] = Method 1, or Method 2 where the value is underlined (underlining not visible)

Mcl-1 protein, sequence (Q07820 whole entry): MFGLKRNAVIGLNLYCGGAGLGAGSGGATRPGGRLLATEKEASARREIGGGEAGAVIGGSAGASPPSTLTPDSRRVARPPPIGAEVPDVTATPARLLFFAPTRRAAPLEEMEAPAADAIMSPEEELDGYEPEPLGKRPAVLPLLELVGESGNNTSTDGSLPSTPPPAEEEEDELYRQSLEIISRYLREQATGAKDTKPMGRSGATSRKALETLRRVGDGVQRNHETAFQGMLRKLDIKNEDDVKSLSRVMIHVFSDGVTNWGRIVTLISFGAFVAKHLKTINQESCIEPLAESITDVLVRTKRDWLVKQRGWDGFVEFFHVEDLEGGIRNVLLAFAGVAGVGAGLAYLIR

Structure (SMILES): CCOC(=O)C(Cc1ccccc1OC)Oc1ncnc2sc(-c3ccco3)c(-c3ccc(OCCN4CCN(C)CC4)c(Cl)c3C)c12 [Example 627, ethyl (2R)-2-{[(5Sa)-5-{3-chloro-2-methyl-4-[2-(4-methylpiperazin-1-yl)ethoxy]phenyl}-6-(furan-2-yl)thieno[2,3-d]pyrimidin-4-yl]oxy}-3-(2-methoxyphenyl)propanoate]
IC50 [2]: 4.9e-07 M

Structure (SMILES): Cc1c(-c2c(-c3ccc(F)o3)sc3ncnc(OC(Cc4ccccc4OCc4ccnn4C)C(=O)O)c23)ccc(OCCN2CCN(C)CC2)c1Cl [Example 180, (2R)-2-{[(5Sa)-5-{3-chloro-2-methyl-4-[2-(4-methylpiperazin-1-yl)ethoxy]phenyl}-6-(5-fluorofuran-2-yl)thieno[2,3-d]pyrimidin-4-yl]oxy}-3-{2-[(1-methyl-1H-pyrazol-5-yl)methoxy]phenyl}propanoic acid]
IC50 [1]: 8.9e-09 M

Structure (SMILES): COc1ccccc1CC(Oc1ncnc2sc(-c3ccco3)c(-c3ccc(OCCN4CCN(C)C(=O)C4)c(Cl)c3C)c12)C(=O)O [Example 321, (2R)-2-{[(5Sa)-5-{3-chloro-2-methyl-4-[2-(4-methyl-3-oxopiperazin-1-yl)ethoxy]phenyl}-6-(furan-2-yl)thieno[2,3-d]pyrimidin-4-yl]oxy}-3-(2-methoxyphenyl)propanoic acid]
IC50 [1]: 6e-09 M

Structure (SMILES): CCN(C)CCOc1ccc(-c2c(-c3ccc(F)cc3)sc3ncnc(OC(Cc4ccccc4OCc4ccnc(-c5ccccc5F)n4)C(=O)OCC(=O)N(C)C)c23)c(C)c1Cl [Example 822, 2-(dimethylamino)-2-oxoethyl (2R)-2-{[(5Sa)-5-(3-chloro-4-{2-[ethyl(methyl)amino]ethoxy}-2-methylphenyl)-6-(4-fluorophenyl)thieno[2,3-d]pyrimidin-4-yl]oxy}-3-(2-{[2-(2-fluorophenyl)pyrimidin-4-yl]methoxy}phenyl)propanoate]
IC50 [3]: 2.4e-06 M

Structure (SMILES): COc1nccc(COc2ccccc2C[C@@H](Oc2ncnc3sc(-c4ccc(F)c(OCCN5CCOCC5)c4)c(-c4ccc(OC)c(Cl)c4C)c23)C(=O)O)n1 [Example 699, (2R)-2-{[(5Ra)-5-(3-chloro-4-methoxy-2-methylphenyl)-6-{4-fluoro-3-[2-(morpholin-4-yl)ethoxy]phenyl}thieno[2,3-d]pyrimidin-4-yl]oxy}-3-{2-[(2-methoxypyrimidin-4-yl)methoxy]phenyl}propanoic acid]
percentage fluorescence polarisation inhibition, Mcl-1 FP: 28.5% @ 1 uM

Structure (SMILES): CCOC(=O)C(Cc1ccccc1OCc1ccnc(-c2ccccc2OCCOC)n1)Oc1ncnc2sc(-c3ccc(F)cc3)c(-c3ccc(OCCN4CCN(C)CC4)c(Cl)c3C)c12 [Example 796, ethyl (2R)-2-{[(5Sa)-5-{3-chloro-2-methyl-4-[2-(4-methylpiperazin-1-yl)ethoxy]phenyl}-6-(4-fluorophenyl)thieno[2,3-d]pyrimidin-4-yl]oxy}-3-[2-({2-[2-(2-methoxyethoxy)phenyl]pyrimidin-4-yl}methoxy)phenyl]propanoate]
IC50 [3]: 5.16e-07 M

Structure (SMILES): COc1ccccc1C[C@@H](Oc1ncnc2sc(-c3ccc(F)cc3)c(-c3ccc(CCCN4CCN(C)CC4)c(Cl)c3C)c12)C(=O)O (single isomer, unassigned) [Example 653]
IC50 [2]: 1.6e-08 M

Structure (SMILES): CCc1sc2ncnc(OC(Cc3ccccc3OCC(F)(F)F)C(=O)O)c2c1-c1ccc(OCCN2CCN(C)CC2)c(Cl)c1C [Example 454, (2R)-2-[((5Sa)-5-{3-chloro-2-methyl-4-[2-(4-methylpiperazin-1-yl)ethoxy]phenyl}-6-ethylthieno[2,3-d]pyrimidin-4-yl)oxy]-3-[2-(2,2,2-trifluoroethoxy)phenyl]propanoic acid]
IC50 [2]: 1.2e-08 M

Structure (SMILES): CCn1nccc1COc1ccccc1CC(Oc1ncnc2sc(-c3ccc(F)o3)c(-c3ccc(OCCN4CCN(C)CC4)c(Cl)c3C)c12)C(=O)O [Example 184, (2R)-2-{[(5Sa)-5-{3-chloro-2-methyl-4-[2-(4-methylpiperazin-1-yl)ethoxy]phenyl}-6-(5-fluorofuran-2-yl)thieno[2,3-d]pyrimidin-4-yl]oxy}-3-{2-[(1-ethyl-1H-pyrazol-5-yl)methoxy]phenyl}propanoic acid]
IC50 [1]: 6e-09 M

Structure (SMILES): Cc1c(-c2c(-c3cnn(C)c3)sc3ncnc(OC(Cc4ccccc4)C(=O)O)c23)ccc(OCCN2CCN(C)CC2)c1Cl [Example 513, (2R)-2-{[(5Sa)-5-{3-chloro-2-methyl-4-[2-(4-methylpiperazin-1-yl)ethoxy]phenyl}-6-(1-methyl-1H-pyrazol-4-yl)thieno[2,3-d]pyrimidin-4-yl]oxy}-3-phenylpropanoic acid]
IC50 [2]: 3.7e-07 M

Structure (SMILES): CCc1sc2ncnc(OC(Cc3ccccc3OC)C(=O)O)c2c1-c1ccc(O)c(Cl)c1C (single isomer, unassigned) [Example 681]
IC50 [2]: 6.7e-09 M

Structure (SMILES): COc1nccc(COc2ccccc2C[C@@H](Oc2ncnc3sc(-c4ccc(F)c(OCCN(C)C)c4)c(-c4ccc(OC)c(Cl)c4C)c23)C(=O)O)n1 [Example 701, (2R)-2-{[(5Ra)-5-(3-chloro-4-methoxy-2-methylphenyl)-6-{3-[2-(dimethylamino)ethoxy]-4-fluorophenyl}thieno[2,3-d]pyrimidin-4-yl]oxy}-3-{2-[(2-methoxypyrimidin-4-yl)methoxy]phenyl}propanoic acid]
percentage fluorescence polarisation inhibition, Mcl-1 FP: 40.75% @ 1 uM

Structure (SMILES): COc1ccccc1CC(Oc1ncnc2sc(-c3ccc(F)cc3)c(-c3ccc(OC)c(Cl)c3C)c12)C(=O)O [Example 840, (2R)-2-{[(5Sa)-5-(3-chloro-4-methoxy-2-methylphenyl)-6-(4-fluorophenyl)thieno[2,3-d]pyrimidin-4-yl]oxy}-3-(2-methoxyphenyl)propanoic acid]
IC50 [3]: 1.28e-07 M

Structure (SMILES): Cc1c(Cl)cccc1-c1c(-c2ccco2)sc2ncnc(OC(Cc3ccccc3OCCN3CCN(C)CC3)C(=O)O)c12 [Example 667, (2S)-2-{[(5Ra)-5-(3-chloro-2-methylphenyl)-6-(furan-2-yl)thieno[2,3-d]pyrimidin-4-yl]oxy}-3-{2-[2-(4-methylpiperazin-1-yl)ethoxy]phenyl}propanoic acid]
IC50 [2]: 2.1e-06 M

Structure (SMILES): Cc1c(-c2c(-c3ccco3)sc3ncnc(O[C@@H](C(=O)O)[C@@H](O)c4ccccc4)c23)ccc(OCCN2CCN(C)CC2)c1Cl (single isomer, unassigned) [Example 342]
IC50 [1]: 3.5e-07 M

Continued, values first:

IC50 [1]: 2.8e-08 M
Structure (SMILES): Cc1c(-c2c(-c3ccco3)sc3ncnc(O[C@H](Cc4ccccc4C(F)(F)F)C(=O)O)c23)ccc(OCCN2CCN(C)CC2)c1Cl [Example 353, (2R)-2-{[(5Sa)-5-{3-chloro-2-methyl-4-[2-(4-methylpiperazin-1-yl)ethoxy]phenyl}-6-(furan-2-yl)thieno[2,3-d]pyrimidin-4-yl]oxy}-3-[2-(trifluoromethyl)phenyl]propanoic acid]

IC50 [2]: 7.3e-09 M
Structure (SMILES): COc1nccc(COc2ccccc2CC(Oc2ncnc3sc(-c4ccc(F)c(OCCN5CCN(C)CC5)c4)c(-c4ccc(OC)c(Cl)c4C)c23)C(=O)O)n1 [Example 698, (2R)-2-{[(5Sa)-5-(3-chloro-4-methoxy-2-methylphenyl)-6-{4-fluoro-3-[2-(4-methylpiperazin-1-yl)ethoxy]phenyl}thieno[2,3-d]pyrimidin-4-yl]oxy}-3-{2-[(2-methoxypyrimidin-4-yl)methoxy]phenyl}propanoic acid]

IC50 [2]: 2.8e-08 M
Structure (SMILES): COc1ccccc1CC(Oc1ncnc2sc(-c3cccc(F)c3)c(-c3ccc(OCCN4CCN(C)CC4)c(Cl)c3C)c12)C(=O)O [Example 551, (2R)-2-{[(5Sa)-5-{3-chloro-2-methyl-4-[2-(4-methylpiperazin-1-yl)ethoxy]phenyl}-6-(3-fluorophenyl)thieno[2,3-d]pyrimidin-4-yl]oxy}-3-(2-methoxyphenyl)propanoic acid]

IC50 [3]: 4.68e-05 M
Structure (SMILES): CCOC(=O)C(Cc1ccccc1OCc1ccnn1C(C)(C)C)Oc1ncnc2sc(-c3cccc(F)c3F)c(-c3ccc(OCCN(C)C)c(Cl)c3C)c12 [Example 804, ethyl (2R)-3-{2-[(1-tert-butyl-1H-pyrazol-5-yl)methoxy]phenyl}-2-{[(5Sa)-5-{3-chloro-4-[2-(dimethylamino)ethoxy]-2-methylphenyl}-6-(2,3-difluorophenyl)thieno[2,3-d]pyrimidin-4-yl]oxy}propanoate]

IC50 [1]: 5.9e-09 M
Structure (SMILES): Cc1c(-c2c(-c3ccc(F)cc3)sc3ncnc(OC(Cc4ccccc4OCc4ccnn4CC(F)(F)F)C(=O)O)c23)ccc(OCCN2CCN(C)CC2)c1Cl [Example 77, (2R)-2-{[(5Sa)-5-{3-chloro-2-methyl-4-[2-(4-methylpiperazin-1-yl)ethoxy]phenyl}-6-(4-fluorophenyl)thieno[2,3-d]pyrimidin-4-yl]oxy}-3-(2-{[1-(2,2,2-trifluoroethyl)-1H-pyrazol-5-yl]methoxy}phenyl)propanoic acid]

percentage fluorescence polarisation inhibition (Mcl-1 FP), partial inhibitors [4]: 46.7% @ 10 uM
Structure (SMILES): COc1ccccc1-c1nccc(COc2ccccc2C[C@@H](Oc2ncnc3sc(-c4ccc(F)cc4)c(-c4ccc(OC)c(Cl)c4C)c23)C(=O)OCC(=O)N(C)C)n1 [Example 848, 2-(dimethylamino)-2-oxoethyl (2R)-2-{[(5Sa)-5-(3-chloro-4-methoxy-2-methylphenyl)-6-(4-fluorophenyl)thieno[2,3-d]pyrimidin-4-yl]oxy}-3-(2-{[2-(2-methoxyphenyl)pyrimidin-4-yl]methoxy}phenyl)propanoate]

percentage fluorescence polarisation inhibition (Mcl-1 FP), partial inhibitors [4]: 23.05% @ 10 uM
Structure (SMILES): CCOC(=O)[C@@H](Cc1ccccc1OCc1ccnc(-c2ccccc2OC)n1)Oc1ncnc2sc(-c3ccc(F)cc3)c(-c3ccc(OC)c(Cl)c3C)c12 [Example 843, ethyl (2R)-2-{[(5Sa)-5-(3-chloro-4-methoxy-2-methylphenyl)-6-(4-fluorophenyl)thieno[2,3-d]pyrimidin-4-yl]oxy}-3-(2-{[2-(2-methoxyphenyl)pyrimidin-4-yl]methoxy}phenyl)propanoate]
